# Measurements taken from US20230331715A1, “SPIRO[3.3]HEPTANE DERIVATIVES FOR THE TREATMENT AND PROPHYLAXIS OF HEPATITIS B VIRUS INFECTION” (priority 2020, published 2023).
# Where two headings read alike, the source gives them in different places.
# Key:
# Type in all cases: cell-based
# [1] = Cytotoxicity in PHH natural infection assay (Cell Counting Kit-8); details: human; HBV-infected PHH, CCK8, compound refreshed two times with 72-hour interval
# Procedure, shortened: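 HBV-infected primary human hepatocytes (200 GE/cell, 4% PEG8000, 24 h; then 72 h sandwich culture) treated with compounds in medium refreshed twice at 72 h intervals. Cytotoxicity measured with CCK8 at end of treatment.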
# HBsAg = assay: PHH HBV natural infection assay, HBsAg (alphalisa)
# Procedure, shortened: (§1)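 Primary human hepatocytes infected with HBV at 200 GE/cell plus 4% PEG8000 for 24 h, then sandwich-cultured 72 h in 1% DMSO medium. Compound-containing medium given twice at 72-h intervals. HBsAg and HBeAg measured in supernatant by AlphaLISA.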
# HBeAg = assay: PHH HBV natural infection assay, HBeAg (alphalisa)
# Procedure, shortened: as §1
# [2] = Hepatitis B virus, 72 h, read-out: HBsAg IC50, HBV-infected PHH, culture supernatant, compound refreshed two times with 72-hour interval, alphalisa
# [3] = Hepatitis B virus, 72 h, read-out: HBeAg IC50, HBV-infected PHH, culture supernatant, compound refreshed two times with 72-hour interval, alphalisa
SMILES,CC50 at 144 h [1],IC50 (HBsAg; [2]),IC50 (HBeAg; [3]),"IC50 (HBsAg; read-out: HBsAg IC50, HBV-infected PHH, culture supernatant, compound refreshed two times with 72-hour interval, alphalisa)","IC50 (HBeAg; read-out: HBeAg IC50, HBV-infected PHH, culture supernatant, compound refreshed two times with 72-hour interval, alphalisa)"
"O=C(NC1CC2(C1)CC(c1nc3ccc(Cl)cc3s1)C2)c1ccc(C(F)(F)F)o1 (stereo not drawn) [Example 15, N-[6-(6-chloro-1,3-benzothiazol-2-yl)spiro[3.3]heptan-2-yl]-5-(trifluoromethyl)furan-2-carboxamide]",> 100000 nM,2960 nM,2070 nM,,
"O=C(NC1CC2(C1)CC(c1nc3cc(Cl)ccc3s1)C2)C1CS(=O)(=O)C1 (stereo not drawn) [Example 25, N-[6-(5-chloro-1,3-benzothiazol-2-yl)spiro[3.3]heptan-2-yl]-1,1-dioxo-thietane-3-carboxamide]",> 10000 nM,2590 nM,2070 nM,,
"[H][C@]1(NC(=O)c2ccnc(S(C)(=O)=O)c2)C[C@@]2(C1)C[C@]([H])(c1nc3cc(Cl)ccc3s1)C2 (single isomer, unassigned) [Example 54-a, (Sa)-N-[6-(5-chloro-1,3-benzothiazol-2-yl)spiro[3.3]heptan-2-yl]-2-methylsulfonyl-pyridine-4-carboxamide]",> 10000 nM,,,2460 nM,1790 nM
